Results as given in US20250000846A1, “METHODS OF TREATMENT OR PREVENTION OF ACUTE BRAIN OR NERVE INJURIES” (Annovis Bio, Inc., priority 2015, published 2025).

What was measured:
retinal neurons = assay: Retinal ischemia-reperfusion (IR), Cell Death ELISA of retina; format: in vivo, Sprague-Dawley rats; details: posiphen tartrate 30 mg/kg oral gavage once per day
Description: IR is a well-established experimental model of glaucoma as well as neuronal cell death in other retinal diseases. IR was induced on one eye of each rat while the opposite eye served as an internal control. Transient IR was induced by raising the intraocular pressure by a controlled micro-injection of saline into the anterior chamber of the eye. This approach is well established to induce large amounts of apoptotic cell death in the retina, beginning within hours after the reperfusion and continuing for several days, leading to a loss of about 50% of the retina. There would also be a dramatic and persistent increase in the permeability of the vasculature of the inner retina during this period, which may lead to edema.
Adult male Sprague-Dawley rats (approx. 450 g, n=8) were housed under normal 12 hr light/dark conditions with free access to food and water. Rats were given posiphen tartrate (30 mg/kg body weight, delivered in 15 mg/ml water) or an equivalent volume of water (vehicle) by oral gavage once per day. Gavage was performed daily over three days and then on the fourth day IR was induced in anesthetized rats (ketamine:xylazine, 100:10 mg/kg, i.p.). […] The retinas were homogenized and fractionated to obtain a cytoplasmic sample which was assessed for nucleosome content in duplicate, using the Cell Death ELISA (Roche). Data were averaged and expressed as optical density (OD). […]

[1] = test system: TH+ terminals in the striatum; assay: Fluid percussion injury (mild TBI), tyrosine hydroxylase (TH) immunoreactivity in striatum; format: in vivo, rats
Method: Rats were subjected to fluid percussion injury (FPI) or sham operation to one side of the brain using the same procedures described in Griesbach et al (Brain Research, 1288: 105-115,2009, PMCID:PMC2735616) and Hutson et al (J. Neurotrauma, Jun. 6, 2011; PMID:21644813). […] About 5 to 30 minutes after FPI or sham operation, the rats were administered with saline or posiphen tartrate at a dose of 2.5, 5 or 10 mg/kg body weight intraperitoneally and also daily for the next 28 to 32 days. At 90 minutes after the last saline or posiphen treatment, all the rats were sacrificed and sections of the brain of each of the rats were stained for tyrosine hydroxylase (TH), wherein TH stains only live cells. The amounts of TH immunoreactivity in the whole striatum of the brain slices were measured, Stereological analysis of dopaminergic (DA) neurons in the substantia nigra was conducted to determine whether posiphen would block the TBI-induced loss of DA neurons ipsilateral and contralateral to the FPI injury, using procedures described in Johnson et al (Brain Pathol. Jun. 29, 2011, doi: 10.1111/j.1750-3639.2011.00513.x) and Hoshino et al (Neurol. Med. Chir. (Tokyo), 2003 April; 43 (4): 165-74). The groups of rats included the rats with LOC above/at the median value. In FIG. 2, the sham operated group was compared with the vehicle group with two-way ANOVA, Bonferroni comparisons, wherein *p<0.05. In FIG. 3, the vehicle group was compared with the posiphen-treatment groups with one-way ANOVA, Bonferroni comparisons, wherein ^#p<0.05.

[2] = test system: IBA-1+ microglia cells in the substantia nigra; assay: Fluid percussion injury, microglial activation by diameter of IBA-1-positive cells in substantia nigra; format: in vivo, rats; details: 10 mg/kg
Method: Because FPI can induce microglial activation according to Hutson et al (J. Neurotrauma, Jun. 6, 2011; PMID:21644813), whether posiphen would reverse this pathological response using quantitative measures was tested in the vehicle or posiphen tartrate treated (10 mg/kg) rats from Example 2 (part of the brain from each of the euthanized rat was stained for tyrosine hydroxylase in Example 2 and another part of the brain was stained for microglia in Example 3). Microglial activation was assessed by quantitative measure of the diameter of IBA-1-positive cells, wherein IBA-1 stands for ionized calcium adaptor binding protein.
Analysis was done on a Leica DM-LB microscope with a Ludl XYZ motorized stage and z-axis microcator (MT12, Heidenheim, Traunreut, Germany) using StereoInvestigator software
(MicroBrightField, Colchester, VT). A contour was drawn to delineate the substantia nigra under the 5× objective lens to ensure anatomical accuracy. Following delineation, the diameters of microglial cell bodies were measured in the first counting frame (100 μm) and then in every fifth counting frame at 40× magnification. This sampling frequency was chosen in order to count approximately 30-50 IBA-1+ cells in each side of the substantia nigra. The first counting frame was always positioned in the upper left corner of the contour and systematically moved from left to right and from top to bottom until the entire delineated contour region was sampled. The number of IBA-1+ microglia cells with cell diameters ranging from 1 μm to 14 μm was then normalized to the total number counted in each section and expressed as a percentage of total microglia. The results are shown in FIG. 4 (wherein the percent of IBA-1+ cells was plotted on the vertical axis, and the microglial cell diameter in um was plotted on the horizontal axis). In FIG. 4, the blank portion of each data bar represents the mean % of IB A-1+ cells with the solid or striped portion at the top of the bar representing the 95% confidence interval. In each pair of data bars in FIG. 4, the bar on the left having a solid portion at the top represents data from the vehicle-treated group, while the bar on the right having a striped portion at the top represents data from the 10 mg/kg posiphen-treated group, wherein the data of the posiphen-treated group (the bar on the right) were compared with the data of the vehicle-treated group (the bar on the left) with Bootstrapping method. The asterisks (*) at the top of some of the bars of the 10 mg/kg posiphen-treated group indicate statistical significance at p<0.05 when compared with the data of the corresponding bar of the vehicle-treated group as analyzed with the Bootstrapping method. Posiphen increased the number of resting microglia and reduced the number of activated microglia.

[3] = test system: rats subjected to mild traumatic brain injury; assay: Working memory test in Morris water maze after fluid percussion injury; format: in vivo
Method: The vehicle or posiphen tartrate treated rats from Example 2 were also subjected to working memory test in Morris water maze. Each of the rats was individually tested in the Morris water maze, which had 4 release points for putting the rat into the water and 4 platforms for the rat to swim to. For a total of 3 consecutive days (on one and two days before the last vehicle or posiphen treatment, and also on the day of the last vehicle or posiphen treatment before euthanasia), the rats were tested on their ability to find the 4 platform positions, using paired trials (4 paired trials per day). In each pair of the trials, the first trial was the learning trial, for the rat to learn the position of a platform, and the second trial was the memory trial for testing the memory of the rat to swim to the platform that the rat learned in the learning trial. In the learning trial, each of the rats was allowed a maximum swim time of 90 seconds to swim to the platform, and guided to the platform if needed after 90 seconds. The memory trial was started 5 seconds after the completion of the learning trial and the time for the rat to reach the platform by swimming in the maze in the memory trial was recorded. The 4 platform positions were switched after every pair of trials. The time interval between the learning trials of two consecutive pairs of trials in a day was 5 minutes. […]

**Q.** `CN1CC[C@]2(C)c3cc(OC(=O)Nc4ccccc4)ccc3N(C)C12` (stereo partly drawn) [posiphen, (3aR)-1,3a,8-trimethyl-1,2,3,3a,8,8a-hexahydropyrrolo[2,3-b]indol-5-yl phenylcarbamate] was tested. Which “number of dead nerve cells in retina of IR eye (IR-Pos) versus opposite eye (control-Pos)” value (retinal neurons) did it give?
**A.** only slightly more

**Q.** And the retinal neurons rescued (retinal neurons; eye subjected to transient IR (IR-Pos), N=6)?
**A.** 72%

**Q.** And the “number of surviving cells in the ipsilateral area of the brain (striatum)” value ([1]; 2.5, 5 and 10 mg/kg i.p. daily for 28 to 32 days, all 3 doses)?
**A.** statistically significant increase

**Q.** And the “TH+ fluorescence intensity versus vehicle-treated group” value ([1]; all posiphen-treated groups (2.5, 5, 10 mg/kg), one-way ANOVA, p<0.05)?
**A.** significantly higher

**Q.** And the “number of nerve cells of the striatum in the contralateral part of the brain” value ([1]; highest dose of 10 mg/kg i.p. daily)?
**A.** an increase

**Q.** What about the “protection of the TH+ cells in ipsilateral striatum (whole, rostral, medial and caudal)” value ([1]; posiphen treated animals, ipsilateral side) of the same molecule?
**A.** full protection

**Q.** What about the “FPI-induced decrease in the TH+ terminals in the striatum” value ([1]; rat, in vivo) of the same molecule?
**A.** attenuated

**Q.** And the “brain inflammation after traumatic brain injury” value [2]?
**A.** decreased

**Q.** And the “FPI-increased microglia activation in the substantia nigra ipsilateral to the injury” value ([2]; statistically significant)?
**A.** attenuated

**Q.** What about the “number of activated microglia” value ([2]; versus vehicle-treated group) of the same molecule?
**A.** reduced

**Q.** And the “number of resting microglia” value ([2]; versus vehicle-treated group)?
**A.** increased

**Q.** What about the “latency to find the platform versus vehicle-treated group” value ([3]; 2.5 mg/kg and 5 mg/kg, p=0.0961) of the same molecule?
**A.** non-significant trend toward a reduction

**Q.** What about the “latency to reach the platform in memory trials versus vehicle-treated group” value ([3]; 10 mg/kg, p=0.0335) of the same molecule?
**A.** amelioration of this deficit
